Experimental data taken from patent US5292737A, “N,N'-bis(sulfonamido)-2-amino-4-iminonaphthalen-1-ones and N,N'-bis(amido)-2-amino-4-iminonaphthalen-1-ones” (Sphinx Pharmaceuticals Corporation, priority 1992, dated 1994).
Read-outs that look alike come from different tables or passages of the source.

Key:
PKC isoenzyme ε = target: T1, PKC isoenzyme ε (Homo sapiens, UniProt Q02156); assay: Protein kinase C inhibition assay, PKC isoenzyme ε; format: biochemical
T1 construct: made in house; host or cells: baculovirus-insect cell expression system
T1 sequence (Q02156 1-737): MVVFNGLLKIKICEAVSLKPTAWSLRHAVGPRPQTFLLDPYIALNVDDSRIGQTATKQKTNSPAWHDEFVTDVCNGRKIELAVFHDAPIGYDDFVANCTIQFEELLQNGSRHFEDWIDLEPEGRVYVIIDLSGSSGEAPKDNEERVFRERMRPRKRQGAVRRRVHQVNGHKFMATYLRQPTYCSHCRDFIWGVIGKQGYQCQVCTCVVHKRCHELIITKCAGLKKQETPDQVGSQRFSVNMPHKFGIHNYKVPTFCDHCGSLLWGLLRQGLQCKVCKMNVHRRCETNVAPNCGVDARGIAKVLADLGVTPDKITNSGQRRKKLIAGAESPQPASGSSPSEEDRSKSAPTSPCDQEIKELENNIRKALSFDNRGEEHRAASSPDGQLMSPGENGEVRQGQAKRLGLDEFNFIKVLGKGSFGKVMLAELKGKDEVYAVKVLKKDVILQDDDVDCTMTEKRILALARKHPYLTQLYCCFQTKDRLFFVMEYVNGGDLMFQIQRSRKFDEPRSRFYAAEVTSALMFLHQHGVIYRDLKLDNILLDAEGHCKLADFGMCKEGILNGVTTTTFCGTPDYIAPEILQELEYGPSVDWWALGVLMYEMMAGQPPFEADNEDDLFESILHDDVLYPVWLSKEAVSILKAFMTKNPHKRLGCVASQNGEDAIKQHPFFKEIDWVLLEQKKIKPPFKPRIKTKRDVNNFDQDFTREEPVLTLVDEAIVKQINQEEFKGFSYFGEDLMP
Experimental: (§1) A protein kinase C (PKC) assay is designed to duplicate the in vivo conditions required for protein kinase C function. Therefore, pH, salt and cofactor concentrations are similar to physiologic levels. Either lysine rich histone H1 (H1) or Myelin basic protein (Mbp) are used in the assay as the phosphorylation acceptor-protein because they are readily available and serve as good substrates for protein kinase C. Enzyme was prepared from baculovirus-insect cell expression systems.
(§2) In the screening assay, phosphatidylserine (PS) and DAG were co-sonicated to form unilamellar and multilamellar vesicles. The concentration of lipids in the assay were suboptimal to maximize the detection potential of the assay for inhibitors or activators. Potential effector compounds were added to the assay in dimethylsulfoxide at four concentrations to give final inhibitor concentrations of 1, 10, 50, and 150 μM, respectively.
(§3) The assay was started with the addition of enzyme and stopped after 10 min by the addition of 25% trichloroacetic acid (TCA) and 1.0 mg/ml bovine serum albumin (BSA). The radioactive histone product was retained and washed on glass fiber filters that allow the unreacted P-ATP to pass through. The amount of phosphorylation was determined by measuring radioactivity with a scintillation counter. Controls were included in every assay to measure background activity in the absence of enzyme, activity in the absence of lipids, and the maximum enzyme activity with saturating levels of the activator lipids.
(§4) Results of the protein kinase C assay are shown in Table 4 in columns labeled α, βII, γ, δ, ε, and .zeta. which represent various PKC isoenzymes. Results are show as IC50, which is the concentration of test compound needed to inhibit 50% of the protein kinase C activity in controls.

PKC isoenzyme α = target: T2, PKC isoenzyme α (Homo sapiens, UniProt P17252); assay: Protein kinase C inhibition assay, PKC isoenzyme α; format: biochemical
T2 construct: made in house; host or cells: baculovirus-insect cell expression system
Experimental: as §1, §2, §3, §4

[1] = system: MCF-7 human breast tumor cell line; assay: Human Tumor Cell Growth Inhibition (3H-thymidine incorporation); format: cell-based
Experimental: MCF-7 a human breast tumor cell line was obtained from the National Cancer Institute, Frederick, Md. Tumor cells were trypsinized with 0.05% trypsin obtained from GIBCO (Grand Island Biological Co. Laboratories, Grand Island, N.Y.), counted with a hemacytometer and seeded at a concentration of 7,500 cells/well in a 96 well microtiter plate and allowed to attach to the surface overnight. To determine a concentration response, test agents were serially diluted an […] added at 2× final concentration to quadruplicate cultures to bring the total volume of each well to […]. The microtiter plate was then incubated at 37° C., 5% CO2 for 24 hrs with ^3 H-thymidine added at a concentration of 0.5 mCi/well in […] of 0.05% trypsin (GIBCO) was added to each well. Cells were checked microscopically to determine detachment from surfaces, and plates were harvested with a cell harvester (PHD, Cambridge Technology, Inc.). Filter paper corresponding to wells were placed in scintillation vials and counted to determine the amount ^3 H-thymidine incorporated by the cells. Counts per minute (CPM) of quadruplicate cultures were averaged and a percent of control calculated for each test agent concentration by the following formula: [formula]
The IC50 or concentration necessary to inhibit the proliferation of cells by 50% compared to control, of each test agent was determined by plotting % control vs log concentration for each dilution and then linear forecasting the 50% control value onto the X axis on a Quattro Pro computer program. Only regression values with a correlation coefficient greater then 0.9 were considered acceptable.

PKC isoenzyme ζ = target: T3, PKC isoenzyme ζ (Homo sapiens, UniProt Q05513); assay: Protein kinase C inhibition assay, PKC isoenzyme ζ; format: biochemical
T3 construct: made in house; host or cells: baculovirus-insect cell expression system
T3 sequence (Q05513 1-592): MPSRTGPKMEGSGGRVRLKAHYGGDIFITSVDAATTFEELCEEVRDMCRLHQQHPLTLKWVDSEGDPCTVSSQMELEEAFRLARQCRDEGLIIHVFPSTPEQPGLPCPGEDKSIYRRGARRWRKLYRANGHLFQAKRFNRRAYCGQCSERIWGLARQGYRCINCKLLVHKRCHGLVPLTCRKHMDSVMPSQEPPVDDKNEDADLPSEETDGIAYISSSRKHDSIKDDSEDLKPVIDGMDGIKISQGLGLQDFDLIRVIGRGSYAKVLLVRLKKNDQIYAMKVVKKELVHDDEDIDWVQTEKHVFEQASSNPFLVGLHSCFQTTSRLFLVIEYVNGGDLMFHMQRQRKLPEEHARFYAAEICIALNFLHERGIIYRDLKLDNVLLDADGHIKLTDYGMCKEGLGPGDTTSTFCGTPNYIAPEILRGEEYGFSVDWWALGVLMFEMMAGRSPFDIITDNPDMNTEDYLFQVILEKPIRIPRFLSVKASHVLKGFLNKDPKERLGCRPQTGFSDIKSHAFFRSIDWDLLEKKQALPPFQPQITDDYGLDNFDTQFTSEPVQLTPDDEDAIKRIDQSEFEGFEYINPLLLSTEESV
Experimental: as §1, §2, §3, §4

[2] = Homo sapiens, MCF7, MCF-7, 24 hrs

Structure (SMILES) | IC50 (PKC isoenzyme ε; IC50 PKC ε) [µM] | IC50 (PKC isoenzyme α; IC50 PKC α) [µM] | IC50 [1, 2] [µM] | IC50 (PKC isoenzyme ζ; IC50 PKC .zeta.) [µM] | IC50 (PKC isoenzyme ε; read-out: IC50 PKC ε) [µM] | IC50 (PKC isoenzyme α; read-out: IC50 PKC α) [µM] | IC50 (PKC isoenzyme ζ; read-out: IC50 PKC .zeta.) [µM] | IC50 ([1]; MCF-7, 24 hrs) [µM]
O=C1C(Nc2ccc(S(=O)(=O)NCCNc3ccc([N+](=O)[O-])cn3)cc2)=CC(=Nc2ccc(S(=O)(=O)NCCNc3ccc([N+](=O)[O-])cn3)cc2)c2ccccc21 [Compound 3ac] | > 150 | 85 | 0.16 | > 150 | – | – | – | –
Cc1cc(C)nc(NS(=O)(=O)c2cccc(N=C3C=C(Nc4cccc(S(=O)(=O)Nc5cc(C)cc(C)n5)c4)C(=O)c4ccccc43)c2)c1 [Compound 3ae] | – | – | 4.8 | – | > 150 | 31 | > 150 | –
COc1cc(NS(=O)(=O)c2ccc(N=C3C=C(Nc4ccc(S(=O)(=O)Nc5cc(OC)cc(OC)c5)cc4)C(=O)c4ccccc43)cc2)cc(OC)c1 [Compound 3af] | – | – | 0.83 | – | 111 | 102 | > 150 | –
Cc1noc(NS(=O)(=O)c2ccc(N=C3C=C(Nc4ccc(S(=O)(=O)Nc5onc(C)c5C)cc4)C(=O)c4ccccc43)cc2)c1C [Compound 3b] | – | – | – | – | 143 | 30 | – | –
Cc1cc(C)nc(NS(=O)(=O)c2ccc(N=C3C=C(Nc4ccc(S(=O)(=O)Nc5nc(C)cc(C)n5)cc4)C(=O)c4ccccc43)cc2)n1 [Compound 3c] | – | – | – | – | > 150 | 17 | – | 7.03
Cc1cc(NS(=O)(=O)c2ccc(N=C3C=C(Nc4ccc(S(=O)(=O)Nc5cc(C)nc(C)n5)cc4)C(=O)c4ccccc43)cc2)nc(C)n1 [Compound 3d] | – | – | 17.2 | – | > 150 | 37 | – | –
Cc1nnc(NS(=O)(=O)c2ccc(N=C3C=C(Nc4ccc(S(=O)(=O)Nc5nnc(C)s5)cc4)C(=O)c4ccccc43)cc2)s1 [Compound 3e] | – | – | – | – | > 150 | 17 | – | –
Cc1ccnc(NS(=O)(=O)c2ccc(N=C3C=C(Nc4ccc(S(=O)(=O)Nc5nccc(C)n5)cc4)C(=O)c4ccccc43)cc2)n1 [Compound 3f] | – | – | 16.6 | – | > 150 | 28 | – | –
COc1cc(NS(=O)(=O)c2ccc(N=C3C=C(Nc4ccc(S(=O)(=O)Nc5cc(OC)nc(OC)n5)cc4)C(=O)c4ccccc43)cc2)nc(OC)n1 [Compound 3g] | – | – | 16.5 | – | > 150 | 32 | – | –
COc1cnc(NS(=O)(=O)c2ccc(N=C3C=C(Nc4ccc(S(=O)(=O)Nc5ncc(OC)cn5)cc4)C(=O)c4ccccc43)cc2)nc1 [Compound 3h] | – | – | 12.2 | – | > 150 | 105 | – | –
O=C1C(Nc2ccc(S(=O)(=O)Nc3ccc(Cl)nn3)cc2)=CC(=Nc2ccc(S(=O)(=O)Nc3ccc(Cl)nn3)cc2)c2ccccc21 [Compound 3l] | – | – | – | – | > 150 | 27 | 28 | –
Cc1cc(NS(=O)(=O)c2ccc(N=C3C=C(Nc4ccc(S(=O)(=O)Nc5cc(C)on5)cc4)C(=O)c4ccccc43)cc2)no1 [Compound 6a] | – | – | – | – | 145 | – | – | –
COc1cc(NS(=O)(=O)c2ccc(N=C3C=C(Nc4ccc(S(=O)(=O)Nc5cc(OC)cc(OC)c5)cc4)C(=O)c4ccccc43)cc2)cc(OC)c1 [Compound 6af] | – | – | – | – | > 150 | 113 | – | 1.2
Cc1cc(NS(=O)(=O)c2ccc(N=C3C=C(Nc4ccc(S(=O)(=O)Nc5cc(C)nc(C)n5)cc4)C(=O)c4ccccc43)cc2)nc(C)n1 [Compound 6d] | – | – | – | – | – | 41 | – | 17.9
Cc1nnc(NS(=O)(=O)c2ccc(N=C3C=C(Nc4ccc(S(=O)(=O)Nc5nnc(C)s5)cc4)C(=O)c4ccccc43)cc2)s1 [Compound 6e] | – | – | – | – | – | 109 | 20 | –
Cc1ccnc(NS(=O)(=O)c2ccc(N=C3C=C(Nc4ccc(S(=O)(=O)Nc5nccc(C)n5)cc4)C(=O)c4ccccc43)cc2)n1 [Compound 6f] | – | – | – | – | – | 24 | 35 | 17.7
COc1cc(NS(=O)(=O)c2ccc(N=C3C=C(Nc4ccc(S(=O)(=O)Nc5cc(OC)nc(OC)n5)cc4)C(=O)c4ccccc43)cc2)nc(OC)n1 [Compound 6g] | – | – | – | – | – | 61 | 28 | 21
COc1cnc(NS(=O)(=O)c2ccc(N=C3C=C(Nc4ccc(S(=O)(=O)Nc5ncc(OC)cn5)cc4)C(=O)c4ccccc43)cc2)nc1 [Compound 6h] | – | – | – | – | – | 108 | 47 | 14.9
O=C1C(Nc2ccc(S(=O)(=O)Nc3ccccn3)cc2)=CC(=Nc2ccc(S(=O)(=O)Nc3ccccn3)cc2)c2ccccc21 [Compound 6i] | – | – | – | – | – | 14 | – | 20
COc1ccc(NS(=O)(=O)c2ccc(N=C3C=C(Nc4ccc(S(=O)(=O)Nc5ccc(OC)nn5)cc4)C(=O)c4ccccc43)cc2)nn1 [Compound 6j] | – | – | – | – | – | 106 | 49 | 10.9
O=C1C(Nc2ccc(S(=O)(=O)Nc3ccc(Cl)nn3)cc2)=CC(=Nc2ccc(S(=O)(=O)Nc3ccc(Cl)nn3)cc2)c2ccccc21 [Compound 6l] | – | – | – | – | > 150 | 44 | 9 | –
O=C1C(Nc2ccc(S(=O)(=O)NCc3ccccn3)cc2)=CC(=Nc2ccc(S(=O)(=O)NCc3ccccn3)cc2)c2ccccc21 [Compound 6n] | – | – | – | – | 149 | 134 | – | 0.75
